Assay results taken from US20250222050A1, “Chlorella and Corn Leaf Extract Compositions, Their Production, and Methods of Use” (Unigen, Inc., priority 2024, published 2025).

Key:
Assay type in all cases: in vivo
BALB/C mice [1] = assay: 60-minute direct effect (direct sleep) test, no pentobarbital
Method: Purpose bred BALB/C mice (n=405; male, 20 g-22 g) were purchased from Beijing Hua Fukang biological technologies Inc (Beijing, China). The study was carried out at Testing Center for the functions of Health Foods, College of Arts and science of Beijing Union University (Beijing, China). Mice were kept in specific pathogen free, temperature-controlled room and fed with rodent diet purchased from Beijing Hua Fukang biological technologies Inc (Beijing, China). Three consecutive studies were carried out. Mice were randomly assigned into 9 groups for each experiment. Fifteen mice were allocated in each group. The first experiment was set to determine the sleep incidence effect of test materials. The second experiment was designed to detect the total sleep time under the hypnotic subthreshold dose of pentobarbital sodium (Lot #: 34E10320, Beijing Dingguo Changsheng Biotechnology Co. Ltd). The third experiment was set to detect sleep latency induced by barbital sodium (Lot #: 527B051, Merck).
Zea mays (corn) leaf extract standardized at not less than 0.2% 6-MBOA (Lot #: FP210105-01) and Chlorella Powder (Lot #: 222A) were suspended with sterile water. Melatonin purchased from By-Health Co. Ltd. (Beijing, China) was used as a reference compound in each study. All mice were orally administrated with test materials in a volume of 20 mL/kg BW/day. Study lasted for 31 days. […]

BALB/C mice [2] = assay: Sleep incidence under hypnotic subthreshold dose of pentobarbital; details: mice n=15, oral 1 mg/kg; 32 mg/kg pentobarbital i.p. 15 min after last dose
Method: The numbers of mice that lost turnover to the right side over 1 min following injection of pentobarbital were recorded. The incidence of sleeping mice was analyzed to compare the difference between the tested substance groups and vehicle control. All the experiments were conducted at night.

BALB/C mice [3] = assay: Sleep time (duration) after pentobarbital sodium; details: oral 1 mg/kg, 46 mg/kg pentobarbital sodium i.p. 15 min after last dose
Method: Purpose bred BALB/C mice (n=405; male, 20 g-22 g) were purchased from Beijing Hua Fukang biological technologies Inc (Beijing, China). […] Mice were kept in specific pathogen free, temperature-controlled room and fed with rodent diet purchased from Beijing Hua Fukang biological technologies Inc (Beijing, China). Three consecutive studies were carried out. Mice were randomly assigned into 9 groups for each experiment. Fifteen mice were allocated in each group.
The amount of time spent sleeping was determined by injecting mice with 46 mg/kg pentobarbital sodium, intraperitoneally, 15 minutes after administration of the last dose of the test materials. The sleep time of each mouse was recorded and the difference of sleep time between tested materials and vehicle control were analyzed.

BALB/C mice [4] = assay: Sleep latency induced by barbital sodium
Method: Purpose bred BALB/C mice (n=405; male, 20 g-22 g) were purchased from Beijing Hua Fukang biological technologies Inc (Beijing, China). The study was carried out at Testing Center for the functions of Health Foods, College of Arts and science of Beijing Union University (Beijing, China). Mice were kept in specific pathogen free, temperature-controlled room and fed with rodent diet purchased from Beijing Hua Fukang biological technologies Inc (Beijing, China). Three consecutive studies were carried out. Mice were randomly assigned into 9 groups for each experiment. Fifteen mice were allocated in each group. […] The third experiment was set to detect sleep latency induced by barbital sodium (Lot #: 527B051, Merck).
Mice were intraperitoneally injected with 240 mg/kg barbital sodium (0.2 mL/20 g body weight), 15 min after the last test material administration. Sleep latency was recorded and the difference in sleep time between the tested substance groups and vehicle control were determined. […]

Structure (SMILES): COc1ccc2[nH]cc(CCNC(C)=O)c2c1 [Melatonin]
- Numbers of sleeping (BALB/C mice [1]; mice n=15, oral 1 mg/kg, 1 h after administration): 0
- Sleep Time (BALB/C mice [1]; mice, oral 1 mg/kg): 0 min
- Incidence (sleep incidence) (BALB/C mice [2]): 60%
- Sleep Time (sleep duration) (BALB/C mice [3]): 59.7 ± 13.0 min
- sleep latency versus vehicle control (in words) (BALB/C mice [4]; melatonin 1 mg/kg, chlorella 5,000 mg/kg, combination 250 + 5,000 mg/kg): significantly shortened
- Latent Time (sleep onset latency) (BALB/C mice [4]; mice, oral 1 mg/kg, 240 mg/kg barbital sodium i.p. 15 min after last dose): 37.8 ± 12.8 min
